The values that follow come from patent US20080227638A1, “Use of abscisic acid to enhance growth control” (priority 2007, published 2008).

SMILES strings stand for the structures.

Format in all cases: in vivo
Series [1] relates to Kentucky bluegrass. The series is described as follows: Greenhouse Kentucky bluegrass height and quality, ABA and paclobutrazol (Example 2). The method, then: (§1) Greenhouse studies were conducted at the Research Farm of Valent BioSciences Corporation (Long Grove, Ill.). Grasses were grown in pots (18 cm in diameter and 18 cm in height) filled with Promix BX (available from Premier Horticulture Inc. Quakertown, Pa.). Grass was irrigated daily by an overhead irrigation system. The irrigation system was set up with multiple Tornado Mist Spray Heads (10 GPH at 40 PSI-Wetted diameter, NDS/Raindrip, Woodland Hills, Calif.). Spray heads were 1-meter apart from each other and 75 cm above grass canopy. Grass was cut with a scissor at 2.5 cm height and fertilizer (1 g/L all purpose fertilizer 20-20-20, available from The Scotts Company, Marysville, Ohio) was applied once per week.
(§2) Chemical solutions were prepared with distilled water. Tween 20 (0.05% v/v) was used as an, adjuvant. Both trinexapac-ethyl (commercial product Primo Maxx, 11.3% active ingredient) and paclobutrazol (commercial product Trimmit 2SC, 22.3% active ingredient) were purchased from Syngenta Crop Protection Inc. (Greensboro, N.C.). Uniconazole-P (commercial product Sumagic, 0.55% active ingredient) was obtained from Valent U.S.A. Corporation (Walnut Creek, Calif.).
(§3) When treated with paclobutrazol or uniconazole-P, turfgrass received irrigation within 24 hours after application to flush chemicals to the root zone. After treatment, turfgrasses were arranged in a randomized complete block experimental design. Turfgrass quality, turfgrass height or clip fresh weight was measured on assigned dates. Turfgrass quality was visually rated on a 0-9 scale based on the color, uniformity and density of the grass with 0 as the worst and 9 as the best. Turfgrass height was measured as the distance between canopy surface and soil. Clips were collected from each plot; all plots were cut to a uniform height.
(§4) All experiments were randomized complete block experimental design. Data were analyzed by analysis of variance. Duncan's new multiple range tests at α=0.05 were used for mean separations.
Kentucky bluegrass sod (unknown variety) was purchased from Deak sod farms, Inc. (Union Grove, Wis.). Grass was grown in the greenhouse in pots (n=6 pots per treatment) for establishment before treatment. […] Turfgrass quality was evaluated at 7 days after treatment, and turfgrass height was measured at 7 and 28 days after treatment. Tween 20 (0.05% w/v) was included as an adjuvant. The turfgrass canopy was cut every 7 days during the experimental period.

The test system of series [2] is Kentucky bluegrass. The series is described as follows: Greenhouse Kentucky bluegrass height, ABA and uniconazole-P (Example 3). The following applies: 10 ppm uniconazole-P. The method, then:
as §1, §2, §3, §4
Kentucky bluegrass sod (unknown variety) was purchased from Deak sod farms, Inc. (Union Grove, Wis.). Grass was grown in the greenhouse in pots (n=6 pots per treatment) for establishment before treatment. […] Tween 20 (0.05% w/v) was included as an adjuvant. The turfgrass was cut every 7 days.

The next series relates to creeping bentgrass. Kind of series: Golf course green creeping bentgrass height, clip weight and quality, ABA and uniconazole-P (Example 5). Conditions: 0.5 ppm uniconazole-P. The method, then: Field studies were conducted at the nursery green or the practice green at Countryside golf course (Mundelein, Ill.). Both greens were sand based and growing Penncross creeping bentgrass. Grass was managed with typical Illinois golf course management practices.
as §2, §3, §4
Tween 20 (0.05% w/v) was included as an adjuvant.

The test system of a further series is Bermudagrass. Kind of series: Bermudagrass clip weight, ABA and uniconazole-P (Example 7). Conditions: 50 ppm uniconazole-P; 7 days after treatment. The method, then:
as §2, §3, §4

Take `CC(C)(C)[C@@H](O)[C@@H](Cc1ccc(Cl)cc1)n1cncn1` [paclobutrazol]: the Turfgrass height worked out at 12.3 cm in the series with Kentucky bluegrass [1] (50 ppm paclobutrazol, 7 days after treatment); 8.6 cm in the series on Kentucky bluegrass [1] (50 ppm paclobutrazol, 28 days after treatment); 12.1 cm with Kentucky bluegrass [1] (500 ppm paclobutrazol, 7 days after treatment); 6.2 cm with Kentucky bluegrass [1] (500 ppm paclobutrazol, 28 days after treatment).

For the compound `CC(C)(C)[C@H](O)/C(=C\c1ccc(Cl)cc1)n1cncn1` [uniconazole-P], the Turfgrass height in the series with Kentucky bluegrass [2] (7 days after treatment) was 12.3 cm; with Kentucky bluegrass [2] (42 days after treatment), 9.8 cm; with creeping bentgrass (7 days after treatment) it was 6.0 cm; in the series on creeping bentgrass (49 days after treatment) it was 4.8 cm. Further, the Clip weight worked out at 2.4 g in the series on creeping bentgrass (7 days after treatment), 3.3 g in the series with creeping bentgrass (49 days after treatment) and 1.4 g in the series on Bermudagrass. Besides, the “Effect on turfgrass quality” value with creeping bentgrass (throughout the study (not shown)) is “No effect on turfgrass quality”. Also, the “less clip weight compared to control” value in the series on Bermudagrass was found to be 14%.
